Experimental data: PubChem BioAssay (NCI)
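Cultured in 96-well plates, cells were exposed to test compound for 48 hours across five concentrations. The concentration for 50% growth inhibition is given as GI50. TGI: total growth inhibition.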

How the values were obtained:
Assay in all cases: inhibition of tumour cell growth, NCI panel, 48 h
[1] = system: 786-0 renal
[2] = system: A498 renal
[3] = system: A549 NSCLC
[4] = system: ACHN renal
[5] = system: CAKI-1 renal
[6] = system: CCRF-CEM leukemia
[7] = system: COLO 205 colon
[8] = system: DU-145 prostate
[9] = system: EKVX NSCLC
[10] = system: HCC-2998 colon
[11] = system: HCT-116 colon
[12] = system: HCT-15 colon
[13] = system: HOP-62 NSCLC
[14] = system: HOP-92 NSCLC
[15] = system: HS 578T breast
[16] = system: HT29 colon
[17] = system: IGROV1 ovarian
[18] = system: K-562 leukemia
[19] = system: KM12 colon
[20] = system: LOX IMVI melanoma
[21] = system: M14 melanoma
[22] = system: MALME-3M melanoma
[23] = system: MCF7 breast
[24] = system: MDA-MB-231 breast
[25] = system: MDA-MB-435
[26] = system: MDA-N
[27] = system: MOLT-4 leukemia
[28] = system: NCI-H226 lung
[29] = system: NCI-H23 lung
[30] = system: NCI-H460 lung
[31] = system: NCI-H522 lung
[32] = system: NCI/ADR-RES ovarian
[33] = system: OVCAR-3 ovarian
[34] = system: OVCAR-4 ovarian
[35] = system: OVCAR-5 ovarian
[36] = system: OVCAR-8 ovarian
[37] = system: PC-3 prostate
[38] = system: RPMI-8226 leukemia
[39] = system: RXF 393 renal
[40] = system: SF-268 CNS
[41] = system: SF-295 CNS
[42] = system: SF-539 CNS
[43] = system: SK-MEL-2 melanoma
[44] = system: SK-MEL-28 melanoma
[45] = system: SK-MEL-5 melanoma
[46] = system: SK-OV-3 ovarian
[47] = system: SN12C renal
[48] = system: SNB-19 CNS
[49] = system: SNB-75 CNS
[50] = system: SW-620 colon
[51] = system: T-47D breast
[52] = system: TK-10 renal
[53] = system: U251 CNS
[54] = system: UACC-257 melanoma
[55] = system: UACC-62 melanoma
[56] = system: UO-31 renal
[57] = system: HL-60(TB) leukemia
[58] = system: BT-549 breast
[59] = system: SR leukemia

COc1cc(CNc2nc3ccccc3n2Cc2ccccc2)cc(CN2CCOCC2)c1O
TGI [1]: 31.6 µM
TGI [2]: 39.2 µM
TGI [3]: > 100 µM
TGI [4]: > 100 µM
TGI [5]: > 100 µM
TGI [6]: > 100 µM
TGI [7]: 40.1 µM
TGI [8]: > 100 µM
TGI [9]: > 100 µM
TGI [10]: 85.1 µM
TGI [11]: 41.7 µM
TGI [12]: 70.6 µM
TGI [13]: 65.2 µM
TGI [14]: 56.3 µM
TGI [15]: 80.9 µM
TGI [16]: 70.4 µM
TGI [17]: > 100 µM
TGI [18]: 53.1 µM
TGI [19]: > 100 µM
TGI [20]: 30.7 µM
TGI [21]: 40.4 µM
TGI [22]: 34 µM
TGI [23]: 79.5 µM
TGI [24]: 38.1 µM
TGI [25]: 44.7 µM
TGI [26]: 68.2 µM
TGI [27]: > 100 µM
TGI [28]: 82.8 µM
TGI [29]: > 100 µM
TGI [30]: > 100 µM
TGI [31]: 78.2 µM
TGI [32]: 65.6 µM
TGI [33]: 56.6 µM
TGI [34]: > 100 µM
TGI [35]: 87.8 µM
TGI [36]: > 100 µM
TGI [37]: 99.5 µM
TGI [38]: > 100 µM
TGI [39]: 47.7 µM
TGI [40]: > 100 µM
TGI [41]: 41.6 µM
TGI [42]: 34.5 µM
TGI [43]: 47.5 µM
TGI [44]: 34.6 µM
TGI [45]: 34.2 µM
TGI [46]: > 100 µM
TGI [47]: > 100 µM
TGI [48]: > 100 µM
TGI [49]: 83.9 µM
TGI [50]: > 100 µM
TGI [51]: > 100 µM
TGI [52]: 65.9 µM
TGI [53]: 93.1 µM
TGI [54]: 39.9 µM
TGI [55]: 45.2 µM
TGI [56]: 52.5 µM

CS(=O)(=O)N1CC(CCl)c2ccc(NCCN)cc21 (configuration not stated)
TGI [1]: 72 µM
TGI [2]: > 100 µM
TGI [3]: > 100 µM
TGI [4]: > 100 µM
TGI [5]: > 100 µM
TGI [6]: > 100 µM
TGI [7]: > 100 µM
TGI [8]: > 100 µM
TGI [9]: > 100 µM
TGI [10]: > 100 µM
TGI [11]: > 100 µM
TGI [12]: > 100 µM
TGI [57]: > 100000 nM
TGI [13]: 32.1 µM
TGI [14]: 74.6 µM
TGI [15]: > 100 µM
TGI [16]: > 100 µM
TGI [17]: 49.8 µM
TGI [18]: > 100 µM
TGI [19]: > 100 µM
TGI [20]: > 100 µM
TGI [21]: > 100 µM
TGI [22]: > 100 µM
TGI [23]: > 100 µM
TGI [24]: > 100 µM
TGI [25]: > 100 µM
TGI [26]: > 100 µM
TGI [27]: > 100 µM
TGI [28]: > 100 µM
TGI [29]: > 100 µM
TGI [30]: > 100 µM
TGI [31]: > 100 µM
TGI [32]: > 100 µM
TGI [33]: > 100 µM
TGI [34]: > 100 µM
TGI [35]: > 100 µM
TGI [36]: > 100 µM
TGI [37]: > 100 µM
TGI [38]: > 100 µM
TGI [39]: > 100 µM
TGI [40]: > 100 µM
TGI [42]: > 100 µM
TGI [43]: > 100 µM
TGI [44]: > 100 µM
TGI [45]: > 100 µM
TGI [46]: 87.9 µM
TGI [47]: > 100 µM
TGI [48]: > 100 µM
TGI [49]: 40.1 µM
TGI [50]: > 100 µM
TGI [51]: > 100 µM
TGI [52]: > 100 µM
TGI [53]: > 100 µM
TGI [54]: > 100 µM
TGI [56]: > 100 µM

COc1cc2cn3c4ccc(O)cc4nc(N)c3c2cc1OC
GI50 [1]: 675 nM
TGI [1]: 3.05 µM
GI50 [2]: 141 nM
TGI [2]: 1.06 µM
GI50 [3]: 839 nM
TGI [3]: 12.9 µM
GI50 [4]: 191 nM
TGI [4]: 2.77 µM
GI50 [58]: 1610 nM
TGI [58]: 8.96 µM
GI50 [5]: 299 nM
TGI [5]: 3.22 µM
GI50 [6]: 181 nM
TGI [6]: 7.58 µM
GI50 [7]: 342 nM
TGI [7]: 6.6 µM
GI50 [8]: 253 nM
TGI [8]: 5.75 µM
GI50 [9]: 2790 nM
TGI [9]: 15.4 µM
GI50 [10]: 606 nM
TGI [10]: 7.29 µM
GI50 [11]: 93.1 nM
TGI [11]: 1.72 µM
GI50 [12]: 721 nM
TGI [12]: 12.1 µM
GI50 [57]: 887 nM
TGI [57]: 2410 nM
GI50 [13]: 375 nM
TGI [13]: 7.67 µM
GI50 [14]: 669 nM
TGI [14]: 8.06 µM
GI50 [15]: 626 nM
TGI [15]: 22.2 µM
GI50 [16]: 714 nM
TGI [16]: 4.57 µM
GI50 [17]: 706 nM
TGI [17]: 15.1 µM
GI50 [18]: 34.8 nM
TGI [18]: 3.6 µM
GI50 [19]: 885 nM
TGI [19]: 4.48 µM
GI50 [20]: 62.1 nM
TGI [20]: 1.79 µM
GI50 [21]: 167 nM
TGI [21]: 8.33 µM
GI50 [22]: 792 nM
TGI [22]: 16.8 µM
GI50 [23]: 174 nM
TGI [23]: 4.15 µM
GI50 [24]: 2000 nM
TGI [24]: 15.6 µM
GI50 [25]: 19.5 nM
TGI [25]: 12.8 µM
GI50 [27]: 483 nM
TGI [27]: 4.33 µM
GI50 [28]: 201 nM
TGI [28]: 3.54 µM
GI50 [29]: 968 nM
TGI [29]: 4.88 µM
GI50 [30]: 289 nM
TGI [30]: 2.36 µM
GI50 [31]: 71.3 nM
TGI [31]: 1.91 µM
GI50 [32]: 1920 nM
TGI [32]: 17.3 µM
GI50 [33]: 231 nM
TGI [33]: 3 µM
GI50 [34]: 651 nM
TGI [34]: 12.4 µM
GI50 [35]: 2600 nM
TGI [35]: 14.1 µM
GI50 [36]: 773 nM
TGI [36]: 12.6 µM
GI50 [37]: 474 nM
TGI [37]: 14.7 µM
GI50 [38]: 1250 nM
TGI [38]: 8.32 µM
GI50 [39]: 283 nM
TGI [39]: 2.5 µM
GI50 [40]: 149 nM
TGI [40]: 15.1 µM
GI50 [41]: 265 nM
TGI [41]: 11.5 µM
GI50 [42]: 200 nM
TGI [42]: 2.39 µM
GI50 [43]: 1890 nM
TGI [43]: 7.61 µM
GI50 [44]: 51.8 nM
TGI [44]: 15.8 µM
GI50 [45]: 73.4 nM
TGI [45]: 0.505 µM
GI50 [46]: 211 nM
TGI [46]: 10.8 µM
GI50 [47]: 295 nM
TGI [47]: 13 µM
GI50 [48]: 211 nM
TGI [48]: 16.7 µM
GI50 [49]: 88.6 nM
TGI [49]: 7.49 µM
GI50 [59]: 11.9 nM
TGI [59]: 1390 nM
GI50 [50]: 119 nM
TGI [50]: 16 µM
GI50 [51]: 435 nM
TGI [51]: 16.4 µM
GI50 [52]: 1540 nM
TGI [52]: 9.55 µM
GI50 [53]: 110 nM
TGI [53]: 8.32 µM
GI50 [54]: 1390 nM
TGI [54]: 6.94 µM
GI50 [55]: 70.5 nM
TGI [55]: 1.63 µM
GI50 [56]: 235 nM
TGI [56]: 2.48 µM
